Test results reported in patent publication US20170159101A1, “DRUG-RESISTANT P97 ATPASE MUTATIONS” (Cleave Biosciences, Inc., priority 2014, published 2017).

How the values were obtained:
[1] = tested on: Hct116 resistant cell line clone #137 (p97 T475I); experiment: GI50 fold-change, resistant clone #137 vs parental; assay type: cell-based, human; conditions: Clone #137, Hct116, resistance generated with compound 4, C1424T / T475I; 72 hrs
Experimental: (§1) Dose titration of test compounds were conducted in Hct116, DLD-1, or LoVo cell lines. In brief, cells were plated in 384-well plates and a selected candidate drug compound was added in a 10-point 2-fold serial dilution.

[2] = tested on: LoVo resistant cell line clone #221 (p97 V474V/A); experiment: GI50 fold-change, resistant clone #221 vs parental; assay type: cell-based, human; conditions: Clone #221, LoVo, resistance generated with compound 4, T1421C/T / V474V/A; 72 hrs
Experimental: Dose titration of test compounds were conducted in Hct116, DLD-1, or LoVo cell lines. In brief, cells were plated in 384-well plates and a selected candidate drug compound was added in a 10-point 2-fold serial dilution. […] Hct116 cells were plated at 50,000 cells per 15 cm dish and treated with GI50-GI90 doses of test compound for 2-4 weeks until individual colonies of cells were visible on the plate.

[3] = tested on: DLD-1 resistant cell line clone #64 (p97 N660N/S); experiment: GI50 fold-change, resistant clone #64 vs parental; assay type: cell-based, human; conditions: Clone #64, DLD-1, resistance generated with compound 4, A1979G/A / N660N/S; 72 hrs
Experimental: as §1

[4] = tested on: Hct116 resistant cell line clone #42 (p97 P472A); experiment: GI50 fold-change, resistant clone #42 vs parental; assay type: cell-based, human; conditions: Clone #42, Hct116, resistance generated with compound 4, C1414G / P472A; 72 hrs
Experimental: as §1

[5] = tested on: Hct116 resistant cell line clone #3 (p97 G481A); conditions: Clone #3, Hct116, resistance generated with compound 2, G1442C / G481A; 72 hrs
[6] = tested on: Hct116 resistant cell line clone #207 (p97 V485D); experiment: GI50 fold-change, resistant clone #207 vs parental; assay type: cell-based, human; conditions: Clone #207, Hct116, resistance generated with compound 4, T1454A / V485D; 72 hrs
Experimental: as §1

[7] = tested on: Hct116 resistant cell line clone #117 (p97 L482I); experiment: GI50 fold-change, resistant clone #117 vs parental; assay type: cell-based, human; conditions: Clone #117, Hct116, resistance generated with compound 4, C1444A / L482I; 72 hrs
Experimental: as §1

[8] = tested on: Hct116 resistant cell line clone #33 (p97 P472L); experiment: GI50 fold-change, resistant clone #33 vs parental; assay type: cell-based, human; conditions: Clone #33, Hct116, resistance generated with compound 4, C1415T / P472L; 72 hrs
Experimental: as §1

[9] = tested on: Hct116 resistant cell line clone #139 (p97 P472S); experiment: GI50 fold-change, resistant clone #139 vs parental; assay type: cell-based, human; conditions: Clone #139, Hct116, resistance generated with compound 4, C1414T / P472S; 72 hrs
Experimental: as §1

[10] = tested on: Hct116 resistant cell line clone #90 (p97 Q473P); experiment: GI50 fold-change, resistant clone #90 vs parental; assay type: cell-based, human; conditions: Clone #90, Hct116, resistance generated with compound 4, A1418C / Q473P; 72 hrs
Experimental: as §1

[11] = tested on: Hct116 resistant cell line clone #11 (p97 E470D); conditions: Clone #11, Hct116, resistance generated with compound 3, G1410T / E470D; 72 hrs
[12] = tested on: p97 inhibitor resistant cell lines; experiment: GI50 fold-change in p97 inhibitor resistant cell lines (overall); assay type: cell-based, human; conditions: all resistant cell lines of Table 1, in words
Experimental: as §1

| Structure (SMILES) | Fold Change in GI50 Compared to Parental Cell Line [1] | Fold Change in GI50 Compared to Parental Cell Line [2] | Fold Change in GI50 Compared to Parental Cell Line [3] | Fold Change in GI50 Compared to Parental Cell Line [4] | Fold Change in GI50 Compared to Parental Cell Line [5] | Fold Change in GI50 Compared to Parental Cell Line [6] | Fold Change in GI50 Compared to Parental Cell Line [7] | Fold Change in GI50 Compared to Parental Cell Line [8] | Fold Change in GI50 Compared to Parental Cell Line [9] | Fold Change in GI50 Compared to Parental Cell Line [10] | Fold Change in GI50 Compared to Parental Cell Line [11] | fold-change in GI50 for the p97 inhibitor resistant cell lines [12] |
| --- | --- | --- | --- | --- | --- | --- | --- | --- | --- | --- | --- | --- |
| Cc1cc2c(C(N)=O)cccc2n1-c1nc2c(c(NCc3ccccc3)n1)COCC2 [Compound 4, 1-[4-(benzylamino)-5H,7H,8H-pyrano[4,3-d]pyrimidin-2-yl]-2-methyl-1H-indole-4-carboxamide] | 4.4 fold | 2.2 fold | 1.2 fold | 6.1 fold | 19.4 fold | 17.0 fold | 3.2 fold | 11.6 fold | 4.8 fold | 3.0 fold | 5.4 fold | – |
| CC(C)C[C@H](NC(=O)[C@H](Cc1ccccc1)NC(=O)c1cnccn1)B(O)O [Compound 1, [(1R)-3-methyl-1-[(2S)-3-phenyl-2-(pyrazin-2-ylformamido)propanamido]butyl]boronic acid, reference compound] | 0.8 fold | 0.9 fold | 0.7 fold | 1.0 fold | 0.9 fold | 1.0 fold | 0.8 fold | 0.9 fold | 1.0 fold | 1.2 fold | 1.0 fold | little fold-change in GI50 |
